Laboratory results: the kinase profiling compilation of Christmann-Franck et al. (2016)

Columns and labels:
Test in all cases: radiometric filter-binding kinase assay, Kinase HotSpot
Conditions in all cases: compound 0.5 µM; ATP 10 µM
EPHA1 (human) = EPHA1 (human) (UniProt P21709)
NEK7 (human) = NEK7 (human) (UniProt Q8TDX7)
MELK (human) = MELK (human) (UniProt Q14680)
TYRO3 (human) = TYRO3 (human) (UniProt Q06418)
PIM1 (human) = PIM1 (human) (UniProt P11309)
LTK (human) = LTK (human) (UniProt P29376)
MINK1 (human) = MINK1 (human) (UniProt Q8N4C8)
CHEK2 (human) = CHEK2 (human) (UniProt O96017)
MAP3K5 (human) = MAP3K5 (human) (UniProt Q99683)
CDK1 CCNA2 (human) = CDK1 CCNA2 (human) (UniProt P06493+P20248)
ADRBK2 (human) = ADRBK2 (human) (UniProt P35626)
RPS6KB2 (human) = RPS6KB2 (human) (UniProt Q9UBS0)
ROCK2 (human) = ROCK2 (human) (UniProt O75116)
CDK6 CCND1 (human) = CDK6 CCND1 (human) (UniProt Q00534+P24385)
TBK1 (human) = TBK1 (human) (UniProt Q9UHD2)
CDK2 CCNE1 (human) = CDK2 CCNE1 (human) (UniProt P24941+P24864)
ADRBK1 (human) = ADRBK1 (human) (UniProt P25098)
PTK2B (human) = PTK2B (human) (UniProt Q14289)
LRRK2 (human) = LRRK2 (human) (UniProt Q5S007)
FYN (human) = FYN (human) (UniProt P06241)
MAPK11 (human) = MAPK11 (human) (UniProt Q15759)
STK39 (human) = STK39 (human) (UniProt Q9UEW8)
NEK2 (human) = NEK2 (human) (UniProt P51955)
GRK7 (human) = GRK7 (human) (UniProt Q8WTQ7)
CSNK1G1 (human) = CSNK1G1 (human) (UniProt Q9HCP0)
RAF1 (human) = RAF1 (human) (UniProt P04049)
ROS1 (human) = ROS1 (human) (UniProt P08922)
MAPK9 (human) = MAPK9 (human) (UniProt P45984)
[1] = system: MAP2K6 (human), P52564 [S207E/T211E]
PDPK1 (human) = PDPK1 (human) (UniProt O15530)
PRKCI (human) = PRKCI (human) (UniProt P41743)
MARK3 (human) = MARK3 (human) (UniProt P27448)
CLK1 (human) = CLK1 (human) (UniProt P49759)
[2] = system: FLT4 (human), P35916 [Q890H]
PTK2 (human) = PTK2 (human) (UniProt Q05397)
TEC (human) = TEC (human) (UniProt P42680)
WNK2 (human) = WNK2 (human) (UniProt Q9Y3S1)
MARK4 (human) = MARK4 (human) (UniProt Q96L34)
EPHA4 (human) = EPHA4 (human) (UniProt P54764)
CDK5 CDK5R1 p25 (human) = CDK5 CDK5R1 p25 (human) (UniProt Q00535+Q15078)
PNCK (human) = PNCK (human) (UniProt Q6P2M8)
BRSK2 (human) = BRSK2 (human) (UniProt Q8IWQ3)
Sequence of BRSK2 (human) (Q8IWQ3 whole entry, looked up): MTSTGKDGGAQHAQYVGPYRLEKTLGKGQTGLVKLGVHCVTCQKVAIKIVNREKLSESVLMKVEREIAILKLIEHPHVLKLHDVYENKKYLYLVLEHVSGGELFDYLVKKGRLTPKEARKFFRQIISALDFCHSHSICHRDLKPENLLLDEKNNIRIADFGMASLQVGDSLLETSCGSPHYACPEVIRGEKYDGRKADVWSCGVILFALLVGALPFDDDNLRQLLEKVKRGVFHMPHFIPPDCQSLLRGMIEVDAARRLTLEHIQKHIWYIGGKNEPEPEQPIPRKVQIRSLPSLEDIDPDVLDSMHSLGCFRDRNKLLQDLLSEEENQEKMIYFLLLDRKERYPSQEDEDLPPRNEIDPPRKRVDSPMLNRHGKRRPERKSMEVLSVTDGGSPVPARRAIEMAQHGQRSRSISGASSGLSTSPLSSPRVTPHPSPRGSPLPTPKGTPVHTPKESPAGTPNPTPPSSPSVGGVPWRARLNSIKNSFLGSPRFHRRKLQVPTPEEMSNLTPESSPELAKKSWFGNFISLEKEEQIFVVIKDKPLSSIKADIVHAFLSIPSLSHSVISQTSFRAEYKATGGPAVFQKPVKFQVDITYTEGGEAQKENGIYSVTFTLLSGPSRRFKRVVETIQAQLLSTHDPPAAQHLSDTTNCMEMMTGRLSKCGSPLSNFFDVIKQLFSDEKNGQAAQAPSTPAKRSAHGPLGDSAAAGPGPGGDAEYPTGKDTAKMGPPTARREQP

Sequence of FLT4 (human), P35916 [Q890H] (P35916 whole entry, looked up, stated change not applied): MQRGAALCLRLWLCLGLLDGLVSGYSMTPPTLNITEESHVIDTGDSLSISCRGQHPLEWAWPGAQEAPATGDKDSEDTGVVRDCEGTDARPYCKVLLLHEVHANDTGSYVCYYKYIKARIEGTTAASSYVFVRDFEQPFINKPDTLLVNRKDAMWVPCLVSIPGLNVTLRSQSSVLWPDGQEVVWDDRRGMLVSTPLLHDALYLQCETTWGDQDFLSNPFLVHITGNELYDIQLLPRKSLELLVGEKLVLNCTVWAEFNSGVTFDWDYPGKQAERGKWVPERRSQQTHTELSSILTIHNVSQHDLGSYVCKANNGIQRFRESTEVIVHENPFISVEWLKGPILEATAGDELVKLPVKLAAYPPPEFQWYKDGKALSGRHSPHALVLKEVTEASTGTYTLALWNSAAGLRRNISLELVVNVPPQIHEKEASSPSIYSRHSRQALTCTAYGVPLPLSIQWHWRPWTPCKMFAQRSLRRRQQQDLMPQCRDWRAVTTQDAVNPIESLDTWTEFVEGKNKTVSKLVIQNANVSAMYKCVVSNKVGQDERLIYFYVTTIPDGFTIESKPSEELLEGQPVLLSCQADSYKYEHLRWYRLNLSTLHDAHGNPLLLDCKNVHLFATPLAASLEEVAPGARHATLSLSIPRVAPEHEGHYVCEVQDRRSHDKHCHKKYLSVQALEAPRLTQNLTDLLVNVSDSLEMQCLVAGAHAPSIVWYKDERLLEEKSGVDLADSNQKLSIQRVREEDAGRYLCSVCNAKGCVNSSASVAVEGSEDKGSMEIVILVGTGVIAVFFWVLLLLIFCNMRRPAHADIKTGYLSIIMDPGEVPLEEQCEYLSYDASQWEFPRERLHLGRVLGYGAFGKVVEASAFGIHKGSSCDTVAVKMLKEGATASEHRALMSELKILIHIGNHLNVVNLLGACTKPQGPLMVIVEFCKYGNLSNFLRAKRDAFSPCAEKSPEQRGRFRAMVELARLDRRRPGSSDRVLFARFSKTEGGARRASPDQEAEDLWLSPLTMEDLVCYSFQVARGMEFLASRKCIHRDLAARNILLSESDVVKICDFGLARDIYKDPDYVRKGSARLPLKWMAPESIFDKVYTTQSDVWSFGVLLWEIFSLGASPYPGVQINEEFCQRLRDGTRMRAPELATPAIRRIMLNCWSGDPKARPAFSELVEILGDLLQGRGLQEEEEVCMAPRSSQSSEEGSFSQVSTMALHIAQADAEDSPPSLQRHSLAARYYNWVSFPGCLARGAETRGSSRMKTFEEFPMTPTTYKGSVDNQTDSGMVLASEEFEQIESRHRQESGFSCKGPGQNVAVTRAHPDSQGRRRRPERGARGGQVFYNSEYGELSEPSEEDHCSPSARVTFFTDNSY
Sequence of MELK (human) (Q14680 whole entry, looked up): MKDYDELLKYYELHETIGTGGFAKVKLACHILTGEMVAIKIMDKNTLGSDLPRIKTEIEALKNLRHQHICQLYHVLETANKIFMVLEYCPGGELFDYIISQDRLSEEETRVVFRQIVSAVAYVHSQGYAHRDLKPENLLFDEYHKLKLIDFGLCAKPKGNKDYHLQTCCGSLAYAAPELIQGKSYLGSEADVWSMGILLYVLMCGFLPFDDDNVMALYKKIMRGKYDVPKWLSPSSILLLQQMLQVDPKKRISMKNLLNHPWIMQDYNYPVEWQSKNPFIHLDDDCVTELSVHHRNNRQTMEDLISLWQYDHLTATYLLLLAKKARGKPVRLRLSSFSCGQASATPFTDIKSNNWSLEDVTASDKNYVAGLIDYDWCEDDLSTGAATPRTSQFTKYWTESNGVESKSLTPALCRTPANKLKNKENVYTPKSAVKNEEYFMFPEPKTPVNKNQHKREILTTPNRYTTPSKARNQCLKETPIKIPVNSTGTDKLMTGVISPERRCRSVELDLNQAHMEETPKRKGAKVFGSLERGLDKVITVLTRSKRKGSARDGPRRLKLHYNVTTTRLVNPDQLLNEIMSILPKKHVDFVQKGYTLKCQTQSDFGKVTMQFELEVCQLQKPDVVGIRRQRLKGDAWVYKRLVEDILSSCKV
Sequence of RPS6KB2 (human) (Q9UBS0 whole entry, looked up): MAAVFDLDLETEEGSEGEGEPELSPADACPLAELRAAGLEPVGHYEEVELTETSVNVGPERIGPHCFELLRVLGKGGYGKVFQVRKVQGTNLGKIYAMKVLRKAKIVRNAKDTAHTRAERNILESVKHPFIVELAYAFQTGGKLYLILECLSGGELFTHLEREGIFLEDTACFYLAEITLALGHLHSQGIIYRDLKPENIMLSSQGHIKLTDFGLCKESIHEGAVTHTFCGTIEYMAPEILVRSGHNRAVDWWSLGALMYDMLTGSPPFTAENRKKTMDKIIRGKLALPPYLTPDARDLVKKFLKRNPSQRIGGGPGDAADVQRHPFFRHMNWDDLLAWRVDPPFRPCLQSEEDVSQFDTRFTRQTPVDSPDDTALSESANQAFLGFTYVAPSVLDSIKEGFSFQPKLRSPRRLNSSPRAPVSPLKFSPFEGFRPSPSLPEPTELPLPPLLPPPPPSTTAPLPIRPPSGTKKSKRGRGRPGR
Sequence of MARK3 (human) (P27448 whole entry, looked up): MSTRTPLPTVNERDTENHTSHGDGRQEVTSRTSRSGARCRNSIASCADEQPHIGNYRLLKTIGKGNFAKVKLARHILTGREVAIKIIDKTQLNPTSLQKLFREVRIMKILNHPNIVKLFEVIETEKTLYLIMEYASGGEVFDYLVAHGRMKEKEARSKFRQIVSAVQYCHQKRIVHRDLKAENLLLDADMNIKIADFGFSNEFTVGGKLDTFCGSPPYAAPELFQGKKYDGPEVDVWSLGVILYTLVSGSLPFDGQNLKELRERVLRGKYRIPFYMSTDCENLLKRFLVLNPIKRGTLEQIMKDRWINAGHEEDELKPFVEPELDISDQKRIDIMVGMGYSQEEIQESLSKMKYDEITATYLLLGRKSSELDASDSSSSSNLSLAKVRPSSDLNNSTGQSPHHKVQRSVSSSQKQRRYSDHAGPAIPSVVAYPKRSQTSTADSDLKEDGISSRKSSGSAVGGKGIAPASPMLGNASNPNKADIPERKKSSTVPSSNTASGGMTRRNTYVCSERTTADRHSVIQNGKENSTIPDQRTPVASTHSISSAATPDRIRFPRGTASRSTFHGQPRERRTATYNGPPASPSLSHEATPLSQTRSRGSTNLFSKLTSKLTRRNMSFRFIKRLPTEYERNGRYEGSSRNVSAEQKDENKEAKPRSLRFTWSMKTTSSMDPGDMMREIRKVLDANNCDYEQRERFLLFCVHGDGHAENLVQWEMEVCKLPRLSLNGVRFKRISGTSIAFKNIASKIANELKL
Sequence of PRKCI (human) (P41743 whole entry, looked up): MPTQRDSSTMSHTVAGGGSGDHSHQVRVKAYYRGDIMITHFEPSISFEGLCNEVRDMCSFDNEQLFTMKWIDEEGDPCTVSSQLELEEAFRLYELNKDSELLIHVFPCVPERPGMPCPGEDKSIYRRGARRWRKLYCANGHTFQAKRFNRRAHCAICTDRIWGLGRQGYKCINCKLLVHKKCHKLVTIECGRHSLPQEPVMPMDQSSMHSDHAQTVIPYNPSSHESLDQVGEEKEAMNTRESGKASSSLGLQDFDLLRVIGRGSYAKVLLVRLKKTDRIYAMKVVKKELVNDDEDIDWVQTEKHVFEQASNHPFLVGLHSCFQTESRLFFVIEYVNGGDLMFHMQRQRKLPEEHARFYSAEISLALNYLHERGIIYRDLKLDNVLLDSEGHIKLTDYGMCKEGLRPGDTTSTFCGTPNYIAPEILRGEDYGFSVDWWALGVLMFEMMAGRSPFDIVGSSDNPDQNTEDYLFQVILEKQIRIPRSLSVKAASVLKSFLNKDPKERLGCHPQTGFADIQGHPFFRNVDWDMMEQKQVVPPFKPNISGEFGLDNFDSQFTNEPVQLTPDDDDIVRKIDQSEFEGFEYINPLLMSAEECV
Sequence of CDK2 CCNE1 (human) (P24864 whole entry, looked up, other chains not shown): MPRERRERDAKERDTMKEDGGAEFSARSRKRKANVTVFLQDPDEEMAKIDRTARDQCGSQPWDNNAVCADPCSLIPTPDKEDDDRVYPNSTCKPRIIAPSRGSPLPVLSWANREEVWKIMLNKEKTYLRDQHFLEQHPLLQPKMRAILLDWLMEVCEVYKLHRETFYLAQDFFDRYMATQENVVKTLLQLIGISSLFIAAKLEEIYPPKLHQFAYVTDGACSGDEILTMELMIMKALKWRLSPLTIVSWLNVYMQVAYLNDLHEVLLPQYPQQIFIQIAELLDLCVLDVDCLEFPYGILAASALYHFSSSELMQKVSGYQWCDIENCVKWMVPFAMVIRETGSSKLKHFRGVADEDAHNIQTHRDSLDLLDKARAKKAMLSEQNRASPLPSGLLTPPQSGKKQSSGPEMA

Fc1ccc(-c2nc3n(c2-c2ccncc2)CCS3)cc1
residual activity (EPHA1 (human)): 98.2% | residual activity (NEK7 (human)): 105% | residual activity (MELK (human)): 102% | residual activity (TYRO3 (human)): 104% | residual activity (PIM1 (human)): 104% | residual activity (LTK (human)): 102% | residual activity (MINK1 (human)): 97.7% | residual activity (CHEK2 (human)): 97.7% | residual activity (MAP3K5 (human)): 105% | residual activity (CDK1 CCNA2 (human)): 94.7% | residual activity (ADRBK2 (human)): 95% | residual activity (RPS6KB2 (human)): 85.6% | residual activity (ROCK2 (human)): 99.1% | residual activity (CDK6 CCND1 (human)): 97% | residual activity (TBK1 (human)): 90.6% | residual activity (CDK2 CCNE1 (human)): 87.9% | residual activity (ADRBK1 (human)): 102% | residual activity (PTK2B (human)): 106% | residual activity (LRRK2 (human)): 96.7% | residual activity (FYN (human)): 108% | residual activity (MAPK11 (human)): 97.2% | residual activity (STK39 (human)): 103% | residual activity (NEK2 (human)): 115% | residual activity (GRK7 (human)): 104% | residual activity (CSNK1G1 (human)): 86.6% | residual activity (RAF1 (human)): 91.1% | residual activity (ROS1 (human)): 95.8% | residual activity (MAPK9 (human)): 90.6% | residual activity [1]: 104% | residual activity (PDPK1 (human)): 109% | residual activity (PRKCI (human)): 90.9% | residual activity (MARK3 (human)): 88.9% | residual activity (CLK1 (human)): 103% | residual activity [2]: 112% | residual activity (PTK2 (human)): 102% | residual activity (TEC (human)): 130% | residual activity (WNK2 (human)): 104% | residual activity (MARK4 (human)): 106% | residual activity (EPHA4 (human)): 106% | residual activity (CDK5 CDK5R1 p25 (human)): 98.2% | residual activity (PNCK (human)): 90.3%

CN(C)CCCn1cc(C2=C(c3c[nH]c4ccccc34)C(=O)NC2=O)c2ccccc21
residual activity (EPHA1 (human)): 89.9% | residual activity (NEK7 (human)): 87.1% | residual activity (MELK (human)): 42% | residual activity (TYRO3 (human)): 97.2% | residual activity (LTK (human)): 99.5% | residual activity (BRSK2 (human)): 55.6% | residual activity (MINK1 (human)): 92.1% | residual activity (CHEK2 (human)): 68.5% | residual activity (MAP3K5 (human)): 90.2% | residual activity (CDK1 CCNA2 (human)): 100% | residual activity (ADRBK2 (human)): 99% | residual activity (RPS6KB2 (human)): 59% | residual activity (ROCK2 (human)): 113% | residual activity (CDK6 CCND1 (human)): 58.3% | residual activity (TBK1 (human)): 83.8% | residual activity (CDK2 CCNE1 (human)): 80.4% | residual activity (ADRBK1 (human)): 96.5% | residual activity (PTK2B (human)): 98.5% | residual activity (LRRK2 (human)): 89.8% | residual activity (FYN (human)): 88.3% | residual activity (MAPK11 (human)): 96.1% | residual activity (STK39 (human)): 91.9% | residual activity (NEK2 (human)): 96.2% | residual activity (GRK7 (human)): 60.4% | residual activity (CSNK1G1 (human)): 99.1% | residual activity (RAF1 (human)): 118% | residual activity (ROS1 (human)): 62.8% | residual activity (MAPK9 (human)): 98.7% | residual activity [1]: 97.4% | residual activity (PDPK1 (human)): 83.3% | residual activity (PRKCI (human)): 55.9% | residual activity (MARK3 (human)): 72% | residual activity (CLK1 (human)): 60.3% | residual activity [2]: 30.6% | residual activity (PTK2 (human)): 86.1% | residual activity (TEC (human)): 116% | residual activity (WNK2 (human)): 107% | residual activity (MARK4 (human)): 66.9% | residual activity (EPHA4 (human)): 88.2% | residual activity (CDK5 CDK5R1 p25 (human)): 80.2% | residual activity (PNCK (human)): 106%

O=C1c2ccccc2-c2nc3nnnn3nc21
residual activity (EPHA1 (human)): 73.1% | residual activity (NEK7 (human)): 83.6% | residual activity (MELK (human)): 55.7% | residual activity (TYRO3 (human)): 33.3% | residual activity (PIM1 (human)): 94.1% | residual activity (LTK (human)): 177% | residual activity (BRSK2 (human)): 66.7% | residual activity (MINK1 (human)): 91.2% | residual activity (CHEK2 (human)): 54.7% | residual activity (MAP3K5 (human)): 106% | residual activity (CDK1 CCNA2 (human)): 48.9% | residual activity (ADRBK2 (human)): 106% | residual activity (RPS6KB2 (human)): 86.3% | residual activity (ROCK2 (human)): 81.7% | residual activity (CDK6 CCND1 (human)): 59.6% | residual activity (TBK1 (human)): 87% | residual activity (CDK2 CCNE1 (human)): 80.6% | residual activity (ADRBK1 (human)): 106% | residual activity (PTK2B (human)): 52.1% | residual activity (LRRK2 (human)): 85.6% | residual activity (FYN (human)): 76.2% | residual activity (MAPK11 (human)): 101% | residual activity (STK39 (human)): 89.2% | residual activity (NEK2 (human)): 77.7% | residual activity (GRK7 (human)): 78.1% | residual activity (CSNK1G1 (human)): 85.2% | residual activity (RAF1 (human)): 76.1% | residual activity (ROS1 (human)): 91.1% | residual activity (MAPK9 (human)): 51.9% | residual activity [1]: 85.7% | residual activity (PDPK1 (human)): 79% | residual activity (PRKCI (human)): 85.7% | residual activity (MARK3 (human)): 78.1% | residual activity (CLK1 (human)): 79.4% | residual activity [2]: 5.79% | residual activity (TEC (human)): 2.44% | residual activity (WNK2 (human)): 143% | residual activity (MARK4 (human)): 88.1% | residual activity (EPHA4 (human)): 61.1% | residual activity (CDK5 CDK5R1 p25 (human)): 46.4% | residual activity (PNCK (human)): 83.4%

CN(C)S(=O)(=O)c1ccc2c(c1)/C(=C/c1cc3c([nH]1)CCCC3)C(=O)N2
residual activity (EPHA1 (human)): 94.5% | residual activity (NEK7 (human)): 103% | residual activity (MELK (human)): 89.1% | residual activity (TYRO3 (human)): 57.2% | residual activity (PIM1 (human)): 101% | residual activity (LTK (human)): 52.7% | residual activity (BRSK2 (human)): 48.7% | residual activity (MINK1 (human)): 83.8% | residual activity (CHEK2 (human)): 46.1% | residual activity (MAP3K5 (human)): 106% | residual activity (CDK1 CCNA2 (human)): 70.6% | residual activity (ADRBK2 (human)): 97% | residual activity (RPS6KB2 (human)): 92.6% | residual activity (ROCK2 (human)): 88.2% | residual activity (CDK6 CCND1 (human)): 92.5% | residual activity (TBK1 (human)): 80.6% | residual activity (CDK2 CCNE1 (human)): 85.5% | residual activity (ADRBK1 (human)): 95% | residual activity (PTK2B (human)): 52.6% | residual activity (LRRK2 (human)): 1.78% | residual activity (FYN (human)): 33.1% | residual activity (MAPK11 (human)): 108% | residual activity (STK39 (human)): 99.5% | residual activity (NEK2 (human)): 98% | residual activity (GRK7 (human)): 82.3% | residual activity (CSNK1G1 (human)): 101% | residual activity (RAF1 (human)): 97.7% | residual activity (ROS1 (human)): 83.3% | residual activity (MAPK9 (human)): 104% | residual activity [1]: 94.6% | residual activity (PRKCI (human)): 95.9% | residual activity (MARK3 (human)): 68.9% | residual activity (CLK1 (human)): 82.6% | residual activity [2]: 78.1% | residual activity (PTK2 (human)): 33.1% | residual activity (TEC (human)): 116% | residual activity (WNK2 (human)): 101% | residual activity (MARK4 (human)): 51.5% | residual activity (EPHA4 (human)): 91.3% | residual activity (CDK5 CDK5R1 p25 (human)): 72.9% | residual activity (PNCK (human)): 95.7%
